The test system of test [1] is MCL-1ΔNΔC. Kind of test: High-throughput competitive FP binding screen, FITC-MCL-1 SAHB/MCL-1ΔNΔC interaction. The following applies: selectivity for MCL-1ΔNΔC over BCL-XLΔC targeting (BCL-XL % Bound minus MCL-1 % Bound).
The target in the next test is BCL-XLΔC (Homo sapiens, UniProt Q07817). Kind of test: High-throughput competitive FP binding screen, FITC-BAD BH3/BCL-XLΔC interaction. The settings on record: FITC-BAD BH3/BCL-XLΔC interaction pair, competitive FP screen.
In test [2] the target is MCL-1ΔNΔC (Homo sapiens, UniProt Q07820). Kind of test: High-throughput competitive FP binding screen, FITC-MCL-1 SAHB/MCL-1ΔNΔC interaction. Also on record: the C-terminal alpha-helix was deleted from each of these constructs; GST (N, cleaved yes); made in house. The following applies: FITC-MCL-1 SAHB/MCL-1ΔNΔC interaction pair, competitive FP screen.

Consider 36 compounds from US20150315211A1, “SMALL MOLECULES FOR THE MODULATION OF MCL-1 AND METHODS OF MODULATING CELL DEATH, CELL DIVISION, CELL DIFFERENTIATION AND METHODS OF TREATING DISORDERS” (priority 2010, published 2015).

Sequence of BCL-XLΔC (Q07817 1-212 limits assumed, stated change not applied): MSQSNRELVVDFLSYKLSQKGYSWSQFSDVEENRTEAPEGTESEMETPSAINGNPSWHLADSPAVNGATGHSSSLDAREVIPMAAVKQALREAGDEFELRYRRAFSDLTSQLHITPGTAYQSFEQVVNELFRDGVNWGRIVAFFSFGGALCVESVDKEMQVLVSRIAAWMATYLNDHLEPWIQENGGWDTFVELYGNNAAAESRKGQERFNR
Sequence of MCL-1ΔNΔC (Homo sapiens, UniProt Q07820) (Q07820 172-320 limits assumed, stated change not applied): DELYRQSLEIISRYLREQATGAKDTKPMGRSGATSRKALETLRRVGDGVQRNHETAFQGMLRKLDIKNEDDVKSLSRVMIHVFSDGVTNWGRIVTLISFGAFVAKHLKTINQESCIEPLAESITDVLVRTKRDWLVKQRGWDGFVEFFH

Regarding `Oc1c(Cl)cc(Cl)cc1Sc1cc(Cl)cc(Cl)c1Cl`, the “Spec Values” in the test with MCL-1ΔNΔC [1] turned out to be 73.22. On BCL-XLΔC, the “BCL-XL % Bound” value is reported as 100.4%. Also, the “MCL-1% Bound” value at MCL-1ΔNΔC [2] is 27.2%.
On the same counts, the results for `CC1=C(C#N)C(O)=NC(=O)/C1=C/c1ccc(-c2cccc(C(=O)O)c2)o1` are 52.9, 89.7% and 36.81%.
The like results for `COC(=O)c1ccc(-c2ccc(/C=C3/C(=O)N(C)C(=O)C(C#N)=C3C)o2)cc1` were, in that order, 52.77, 91.59% and 38.82%.
The like results for `CC1=C(C#N)C(=O)N(CCc2ccccc2)C(=O)/C1=C\c1ccc(-c2cccc(Cl)c2)o1` were, in that order, 49.43, 78.77% and 29.33%.
Consider `O=c1oc2cc(Cl)c(O)c(Cl)c2s1`, for which the “Spec Values” with MCL-1ΔNΔC [1] stood at 109.9. Moreover, the “BCL-XL % Bound” value on BCL-XLΔC is listed as 104.7%. Also, the “MCL-1% Bound” value at MCL-1ΔNΔC [2] was −5.219%.
The like results for `O=c1oc2c(-c3cccc(Cl)c3)cc(O)cc2s1` were, in that order, 64.95, 76.15% and 11.2%.
The like results for `Cc1ccc(C)c(S(=O)(=O)Nc2cc(Cl)c3oc(=O)sc3c2)c1` were, in that order, 61.36, 86.74% and 25.38%.
The like results for `Cc1cccc(C(=O)Oc2ccc3oc(=O)sc3c2)c1` were, in that order, 47.88, 92.24% and 44.36%.
For `Cc1ccc(C2=NC(=O)C(Cc3cc(O)c(O)c(Br)c3)S2)cc1` (stereo not drawn), the “Spec Values” in the test with MCL-1ΔNΔC [1] is 93.98. In addition, the “BCL-XL % Bound” value on BCL-XLΔC came out at 96.59%. Further, at MCL-1ΔNΔC [2], the “MCL-1% Bound” value is listed as 2.607%.
On the same counts, the results for `O=C1N=C(Nc2cccc(Cl)c2Cl)S/C1=C/c1ccco1` are 73.87, 89.44% and 15.57%.
The like results for `CCOC(=O)C1=C(Nc2cccc(Cl)c2)S/C(=C\c2ccco2)C1=O` were, in that order, 63, 111.2% and 48.22%.
The like results for `CCOC(=O)C1=C(NC(=O)c2ccccc2)S/C(=C\c2ccc(C)o2)C1=O` were, in that order, 58.06, 101.2% and 43.16%.
For `CCOC(=O)c1ccc(-c2ccc(/C=C3\S/C(=N\N=C4/C(=O)Nc5ccccc54)NC3=O)o2)cc1`, in the test on MCL-1ΔNΔC [1], the “Spec Values” is 53.34. For the same compound, the “BCL-XL % Bound” value on BCL-XLΔC is on record as 66.63%. Further, the “MCL-1% Bound” value on MCL-1ΔNΔC [2] was 13.28%.
On the same counts, the results for `O=C1N/C(=N/c2ccccc2)S/C1=C/C=C/c1ccco1` are 48.63, 97.59% and 48.95%.
The like results for `COc1ccc(/C=c2\s/c(=C\C(=O)c3ccco3)[nH]c2=O)cc1O` were, in that order, 48.14, 263.7% and 215.6%.
The like results for `O=C1N/C(=N\c2ccc(F)cc2)S/C1=C/c1ccc(N2CCCCCC2)o1` were, in that order, 47.38, 87.8% and 40.42%.
Take `CCOc1ccc(NC(=O)CC2C(=O)N(Cc3ccco3)C(=S)N2CCNC(C)=O)cc1` (stereo not drawn): the “Spec Values” with MCL-1ΔNΔC [1] came out at 82.72. Moreover, the “BCL-XL % Bound” value at BCL-XLΔC was found to be 102.4%. Besides, the “MCL-1% Bound” value at MCL-1ΔNΔC [2] is 19.69%.
In the case of `CN(C)/C=C1\SC(=S)N(c2ccc(Br)cc2)C1=O`, in the test on MCL-1ΔNΔC [1], the “Spec Values” turned out to be 79.08. Besides, at BCL-XLΔC, the “BCL-XL % Bound” value is recorded as 112.3%. In addition, the “MCL-1% Bound” value at MCL-1ΔNΔC [2] is 33.27%.
The like results for `CC(C)C(C(=O)O)N1C(=O)/C(=C/C=C/c2ccco2)SC1=S` (stereo not drawn) were, in that order, 76.69, 102.8% and 26.08%.
The like results for `O=C(NN1C(=O)S/C(=C/C=C/c2ccco2)C1=O)c1ccccc1O` were, in that order, 76.1, 95.8% and 19.8%.
The like results for `O=C1NC(=S)S/C1=C\c1ccc(-c2ccc(S(=O)(=O)N3CCOCC3)cc2)o1` were, in that order, 69.33, 107.9% and 38.57%.
Turning to `O=C(O)C(Cc1ccccc1)N1C(=O)/C(=C\c2ccco2)SC1=S` (stereo not drawn), the “Spec Values” in the test with MCL-1ΔNΔC [1] amounted to 68.92. The “BCL-XL % Bound” value at BCL-XLΔC was 90.21%. For the same compound, at MCL-1ΔNΔC [2], the “MCL-1% Bound” value came to 21.29%.
On the same counts, the results for `O=C1/C(=C\C=C\c2ccco2)SC(=S)N1NS(=O)(=O)c1ccccc1` are 66.9, 89.9% and 23.0%.
On the same counts, the results for `CN(C)c1ccc(/C=C2\SC(=O)N(CCC(=O)Nc3ccccc3)C2=O)cc1` are 62.76, 92.22% and 29.45%.
The like results for `CCCN1C(=O)/C(=C/c2ccc(-c3cccc(C(F)(F)F)c3)o2)NC1=S` were, in that order, 57.72, 85.65% and 27.93%.
`O=C1NC(=S)C(=C2CCCC2)S1`: the “Spec Values” in the test on MCL-1ΔNΔC [1] came out at 55.3. The “BCL-XL % Bound” value on BCL-XLΔC turned out to be 93.34%. Also, the “MCL-1% Bound” value at MCL-1ΔNΔC [2] turned out to be 38.05%.
On the same counts, the results for `O=C(CCN1C(=O)/C(=C\C=C\c2ccco2)SC1=S)Nc1ccc(C(=O)O)c(O)c1` are 54.54, 76.09% and 21.54%.
On the same counts, the results for `O=C1NC(=O)/C(=C\c2cccc(C(F)(F)F)c2)S1` are 51.57, 94.16% and 42.59%.
For the compound `CCN1C(=O)C2Cc3cc(OC)c(OC)cc3CN2C1=O` (stereo not drawn), the “Spec Values” in the test with MCL-1ΔNΔC [1] is recorded as 51.9. Besides, at BCL-XLΔC, the “BCL-XL % Bound” value is reported as 91.73%. For the same compound, the “MCL-1% Bound” value at MCL-1ΔNΔC [2] worked out at 39.84%.
On the same counts, the results for `O=C(O)CC1NC(=S)N(Cc2ccccc2)C1=O` (stereo not drawn) are 50.19, 98.89% and 48.71%.
The like results for `CC(C)CN1C(=O)/C(=C\c2ccc(-c3ccc(S(N)(=O)=O)cc3)o2)SC1=S` were, in that order, 47.35, 105.9% and 58.51%.
On the same counts, the results for `CC(C)/N=c1\scc(-c2cccs2)n1/N=C/c1ccc(O)c(O)c1O` are 124.8, 101.7% and −23.1%.
Consider `Cc1cs/c(=N\C2CCCCC2)n1/N=C/c1ccc(O)c(O)c1O`, for which the “Spec Values” in the test with MCL-1ΔNΔC [1] came out at 106.2. Further, the “BCL-XL % Bound” value at BCL-XLΔC came out at 89.95%. The “MCL-1% Bound” value at MCL-1ΔNΔC [2] is reported as −16.27%.
The like results for `Cc1nn2c(S)nnc2nc1O` were, in that order, 168.5, 102.7% and −65.83%.
The like results for `CCN(CC)c1ccc2cc(C(N)=O)/c(=N\NC(=O)c3ccccc3)oc2c1` were, in that order, 135.9, 129.3% and −6.592%.
In the case of `COc1ccc(C(=O)COC(=O)c2c3c(nc4ccccc24)CCN(C)C3)cc1`, the “Spec Values” with MCL-1ΔNΔC [1] worked out at 119.7. For the same compound, the “BCL-XL % Bound” value at BCL-XLΔC worked out at 88.79%. The “MCL-1% Bound” value at MCL-1ΔNΔC [2] was −30.96%.
